Data reported in patent US8952024B2, “Herbicidal pyrimidone derivatives” (E I du Pont de Nemours and Company, priority 2009, dated 2015).

Legend:
Format in all cases: in vivo
[1] = test system: ducksalad (Heteranthera limosa); assay: Test B flooded paddy test; settings: for Plant response rating, Flood, Ducksalad: 250 g ai/ha, flooded paddy test, visual rating on 0 to 100 scale (0 no effect, 100 complete control) after 13 to 15 days; for Plant response rating, Ducksalad: Flood (flooded paddy test), 13 to 15 days
Outline: (§1)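 Greenhouse-held for 13 to 15 days, treated pots were compared visually with controls and scored 0–100 (0, no effect). Treatment had been made into paddy water kept at 3 cm above the soil, with plants at the 2-leaf stage.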

[2] = test system: rice (Oryza sativa); assay: Test B flooded paddy test; settings: for Plant response rating, Flood, Rice: 250 g ai/ha, flooded paddy test, visual rating on 0 to 100 scale (0 no effect, 100 complete control) after 13 to 15 days; for Plant response rating, Rice: Flood (flooded paddy test), 13 to 15 days
Outline: as §1

[3] = test system: umbrella sedge (Cyperus difformis); assay: Test B flooded paddy test; settings: for Plant response rating, Flood, Sedge, Umbrella: 250 g ai/ha, flooded paddy test, visual rating on 0 to 100 scale (0 no effect, 100 complete control) after 13 to 15 days; for Plant response rating, Sedge, Umbrella: Flood (flooded paddy test), 13 to 15 days
Outline: as §1

[4] = test system: barnyardgrass (Echinochloa crus-galli); assay: Test B flooded paddy test; settings: for Plant response rating, Flood, Barnyardgrass: 250 g ai/ha, flooded paddy test, visual rating on 0 to 100 scale (0 no effect, 100 complete control) after 13 to 15 days; for Plant response rating, Barnyardgrass: Flood (flooded paddy test), 13 to 15 days
Outline: as §1

[5] = test system: corn (Zea mays); assay: Test A pre-/postemergence plant response
Outline: (§2)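 Greenhouse trial, ~10 days. Soil (loam/sand) sprayed preemergence after seeding; emerged plants (1–2 leaf, 2–10 cm) sprayed postemergence in parallel. Response = visual injury vs untreated control, 0–100.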

[6] = test system: wheat (Triticum aestivum); assay: Test A pre-/postemergence plant response
Outline: as §2

[7] = test system: morningglory (Ipomoea spp.); assay: Test A pre-/postemergence plant response
Outline: as §2

[8] = test system: velvetleaf (Abutilon theophrasti); assay: Test A pre-/postemergence plant response
Outline: as §2

[9] = test system: giant foxtail (Setaria faberii); assay: Test A pre-/postemergence plant response
Outline: as §2

[10] = test system: large crabgrass (Digitaria sanguinalis); assay: Test A pre-/postemergence plant response
Outline: as §2

[11] = test system: pigweed (Amaranthus retroflexus); assay: Test A pre-/postemergence plant response
Outline: as §2

[12] = test system: barnyardgrass (Echinochloa crus-galli); assay: Test A pre-/postemergence plant response
Outline: as §2

[13] = 62 g ai/ha, scale of 0 to 100 where 0 is no effect and 100 is complete control
[14] = 125 g ai/ha, scale 0 to 100, 0 is no effect, 100 is complete control
[15] = Flood, 31 g ai/ha, scale 0 to 100 (0 no effect, 100 complete control)
[16] = Postemergence, 125 g ai/ha, 0 to 100 scale where 0 is no effect and 100 is complete control
[17] = Postemergence, 500 g ai/ha, visual injury, 0 to 100 scale (0 no effect, 100 complete control), approx. ten days
[18] = Preemergence, 125 g ai/ha, 0 to 100 scale, 0 = no effect, 100 = complete control
[19] = Preemergence, 500 g ai/ha, 0 to 100 scale, 0 = no effect, 100 = complete control
[20] = 31 g ai/ha, scale of 0 to 100 where 0 is no effect and 100 is complete control
[21] = Postemergence, 125 g ai/ha, visual injury, 0 to 100 scale (0 no effect, 100 complete control), approx. ten days
[22] = Postemergence, 500 g ai/ha, 0 to 100 scale, 0 = no effect, 100 = complete control, approx. ten days
[23] = Preemergence, 500 g ai/ha, visual injury, 0 to 100 scale (0 no effect, 100 complete control), approx. ten days
[24] = 62 g ai/ha, scale 0 to 100, 0 is no effect, 100 is complete control

SMILES: Cc1ccc(F)cc1-n1c(-c2cc(F)cc(F)c2)ncc(C(=O)C2=C(O)CCCC2=O)c1=O [Compound 183]
- Plant response rating, Flood, Ducksalad [1]: 95
- Plant response rating, Ducksalad [1, 13]: 65
- Plant response rating, Ducksalad [1, 14]: 80
- Ducksalad plant response rating [1, 15]: 30
- Plant response rating, Flood, Rice [2]: 0
- Plant response rating, Rice [2, 13]: 0
- Plant response rating, Rice [2, 14]: 0
- Rice plant response rating [2, 15]: 0
- Plant response rating, Flood, Sedge, Umbrella [3]: 90
- Plant response rating, Sedge, Umbrella [3, 13]: 50
- Plant response rating, Sedge, Umbrella [3, 14]: 65
- Sedge, Umbrella plant response rating [3, 15]: 0
- Plant response rating, Flood, Barnyardgrass [4]: 35
- Plant response rating, Barnyardgrass [4, 13]: 0
- Plant response rating, Barnyardgrass [4, 14]: 0
- Barnyardgrass plant response rating [4, 15]: 0
- Plant response rating, Corn [5, 16]: 10
- Corn plant response rating [5, 17]: 80
- Plant response rating, Corn [5, 18]: 0
- Plant response rating, Corn [5, 19]: 0
- Plant response rating, Wheat [6, 16]: 50
- Wheat plant response rating [6, 17]: 80
- Plant response rating, Wheat [6, 18]: 0
- Plant response rating, Wheat [6, 19]: 50
- Plant response rating, Morningglory [7, 16]: 40
- Morningglory plant response rating [7, 17]: 70
- Plant response rating, Morningglory [7, 18]: 20
- Plant response rating, Morningglory [7, 19]: 50
- Plant response rating, Velvetleaf [8, 16]: 100
- Velvetleaf plant response rating [8, 17]: 100
- Plant response rating, Velvetleaf [8, 18]: 100
- Plant response rating, Velvetleaf [8, 19]: 100
- Plant response rating, Foxtail, Giant [9, 16]: 80
- Foxtail, Giant plant response rating [9, 17]: 100
- Plant response rating, Foxtail, Giant [9, 18]: 60
- Plant response rating, Foxtail, Giant [9, 19]: 90
- Plant response rating, Crabgrass, Large [10, 16]: 80
- Crabgrass, Large plant response rating [10, 17]: 100
- Plant response rating, Crabgrass, Large [10, 18]: 90
- Plant response rating, Crabgrass, Large [10, 19]: 100
- Plant response rating, Pigweed [11, 16]: 100
- Pigweed plant response rating [11, 17]: 100
- Plant response rating, Pigweed [11, 18]: 90
- Plant response rating, Pigweed [11, 19]: 100
- Plant response rating, Barnyardgrass [12, 16]: 60
- Barnyardgrass plant response rating [12, 17]: 90
- Plant response rating, Barnyardgrass [12, 18]: 20
- Plant response rating, Barnyardgrass [12, 19]: 100

SMILES: CC(C)c1ncc(C(=O)C2=C(O)CCCC2=O)c(=O)n1-c1ccccc1 [Compound 60]
- Plant response rating, Flood, Ducksalad [1]: 60
- Plant response rating, Ducksalad [1, 20]: 0
- Plant response rating, Ducksalad [1, 13]: 0
- Plant response rating, Ducksalad [1, 14]: 40
- Plant response rating, Flood, Rice [2]: 15
- Plant response rating, Rice [2, 20]: 0
- Plant response rating, Rice [2, 13]: 0
- Plant response rating, Rice [2, 14]: 0
- Plant response rating, Flood, Sedge, Umbrella [3]: 85
- Plant response rating, Sedge, Umbrella [3, 20]: 0
- Plant response rating, Sedge, Umbrella [3, 13]: 30
- Plant response rating, Sedge, Umbrella [3, 14]: 75
- Plant response rating, Flood, Barnyardgrass [4]: 40
- Plant response rating, Barnyardgrass [4, 20]: 0
- Plant response rating, Barnyardgrass [4, 13]: 0
- Plant response rating, Barnyardgrass [4, 14]: 30
- Corn plant response rating [5, 21]: 0
- Plant response rating, Corn [5, 22]: 10
- Plant response rating, Corn [5, 18]: 0
- Plant response rating, Corn [5, 23]: 10
- Wheat plant response rating [6, 21]: 20
- Plant response rating, Wheat [6, 22]: 50
- Plant response rating, Wheat [6, 18]: 0
- Plant response rating, Wheat [6, 23]: 40
- Morningglory plant response rating [7, 21]: 60
- Plant response rating, Morningglory [7, 22]: 90
- Plant response rating, Morningglory [7, 23]: 80
- Velvetleaf plant response rating [8, 21]: 100
- Plant response rating, Velvetleaf [8, 22]: 100
- Plant response rating, Velvetleaf [8, 18]: 80
- Plant response rating, Velvetleaf [8, 23]: 100
- Foxtail, Giant plant response rating [9, 21]: 80
- Plant response rating, Foxtail, Giant [9, 22]: 90
- Plant response rating, Foxtail, Giant [9, 18]: 60
- Plant response rating, Foxtail, Giant [9, 23]: 90
- Crabgrass, Large plant response rating [10, 21]: 90
- Plant response rating, Crabgrass, Large [10, 22]: 100
- Plant response rating, Crabgrass, Large [10, 18]: 90
- Plant response rating, Crabgrass, Large [10, 23]: 100
- Pigweed plant response rating [11, 21]: 100
- Plant response rating, Pigweed [11, 22]: 100
- Plant response rating, Pigweed [11, 18]: 90
- Plant response rating, Pigweed [11, 23]: 100
- Barnyardgrass plant response rating [12, 21]: 60
- Plant response rating, Barnyardgrass [12, 22]: 90
- Plant response rating, Barnyardgrass [12, 18]: 60
- Plant response rating, Barnyardgrass [12, 23]: 90

SMILES: Cc1ccc(-n2c(-c3ccccc3)ncc(C(=O)C3=C(O)CCCC3=O)c2=O)c(Cl)c1 [Compound 41]
- Plant response rating, Flood, Ducksalad [1]: 75
- Plant response rating, Ducksalad [1, 24]: 70
- Plant response rating, Flood, Rice [2]: 0
- Plant response rating, Rice [2, 24]: 0
- Plant response rating, Flood, Sedge, Umbrella [3]: 80
- Plant response rating, Sedge, Umbrella [3, 24]: 70
- Plant response rating, Flood, Barnyardgrass [4]: 30
- Plant response rating, Barnyardgrass [4, 24]: 0
- Corn plant response rating [5, 21]: 0
- Plant response rating, Corn [5, 22]: 10
- Plant response rating, Corn [5, 18]: 0
- Plant response rating, Corn [5, 23]: 0
- Wheat plant response rating [6, 21]: 0
- Plant response rating, Wheat [6, 22]: 0
- Plant response rating, Wheat [6, 18]: 0
- Plant response rating, Wheat [6, 23]: 0
- Morningglory plant response rating [7, 21]: 10
- Plant response rating, Morningglory [7, 22]: 70
- Plant response rating, Morningglory [7, 18]: 0
- Plant response rating, Morningglory [7, 23]: 20
- Velvetleaf plant response rating [8, 21]: 100
- Plant response rating, Velvetleaf [8, 22]: 100
- Plant response rating, Velvetleaf [8, 18]: 30
- Plant response rating, Velvetleaf [8, 23]: 80
- Foxtail, Giant plant response rating [9, 21]: 20
- Plant response rating, Foxtail, Giant [9, 22]: 80
- Plant response rating, Foxtail, Giant [9, 18]: 10
- Plant response rating, Foxtail, Giant [9, 23]: 30
- Crabgrass, Large plant response rating [10, 21]: 20
- Plant response rating, Crabgrass, Large [10, 22]: 70
- Plant response rating, Crabgrass, Large [10, 18]: 20
- Plant response rating, Crabgrass, Large [10, 23]: 80
- Pigweed plant response rating [11, 21]: 100
- Plant response rating, Pigweed [11, 22]: 100
- Plant response rating, Pigweed [11, 18]: 90
- Plant response rating, Pigweed [11, 23]: 90
- Barnyardgrass plant response rating [12, 21]: 50
- Plant response rating, Barnyardgrass [12, 22]: 90
- Plant response rating, Barnyardgrass [12, 18]: 0
- Plant response rating, Barnyardgrass [12, 23]: 80
